# Legend:
# [1] = target: T1, Alpha-1A adrenergic receptor (Homo sapiens, UniProt P35348); type: functional, cell-based
# T1 sequence (P35348 whole entry): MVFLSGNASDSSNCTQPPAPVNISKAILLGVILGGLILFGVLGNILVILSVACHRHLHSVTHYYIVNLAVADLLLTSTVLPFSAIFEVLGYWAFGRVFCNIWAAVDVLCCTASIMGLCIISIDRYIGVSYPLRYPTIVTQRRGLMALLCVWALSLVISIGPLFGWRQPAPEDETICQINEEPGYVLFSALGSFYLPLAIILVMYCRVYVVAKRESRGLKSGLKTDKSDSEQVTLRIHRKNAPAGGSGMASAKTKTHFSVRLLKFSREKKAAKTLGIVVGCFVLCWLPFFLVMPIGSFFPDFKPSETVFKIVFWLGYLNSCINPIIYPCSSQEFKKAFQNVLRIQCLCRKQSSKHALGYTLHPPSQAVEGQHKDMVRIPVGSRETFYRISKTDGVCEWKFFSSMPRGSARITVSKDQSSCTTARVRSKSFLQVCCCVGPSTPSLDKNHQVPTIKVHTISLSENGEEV
# [2] = target: Beta-2 adrenergic receptor (Homo sapiens, UniProt P07550)
# [3] = target: Vasopressin V1a receptor (Homo sapiens, UniProt P37288)
# [4] = target: Muscarinic acetylcholine receptor M3 (Homo sapiens, UniProt P20309)
# [5] = target: T2, Estrogen receptor (Homo sapiens, UniProt P03372)
# T2 sequence (P03372 whole entry): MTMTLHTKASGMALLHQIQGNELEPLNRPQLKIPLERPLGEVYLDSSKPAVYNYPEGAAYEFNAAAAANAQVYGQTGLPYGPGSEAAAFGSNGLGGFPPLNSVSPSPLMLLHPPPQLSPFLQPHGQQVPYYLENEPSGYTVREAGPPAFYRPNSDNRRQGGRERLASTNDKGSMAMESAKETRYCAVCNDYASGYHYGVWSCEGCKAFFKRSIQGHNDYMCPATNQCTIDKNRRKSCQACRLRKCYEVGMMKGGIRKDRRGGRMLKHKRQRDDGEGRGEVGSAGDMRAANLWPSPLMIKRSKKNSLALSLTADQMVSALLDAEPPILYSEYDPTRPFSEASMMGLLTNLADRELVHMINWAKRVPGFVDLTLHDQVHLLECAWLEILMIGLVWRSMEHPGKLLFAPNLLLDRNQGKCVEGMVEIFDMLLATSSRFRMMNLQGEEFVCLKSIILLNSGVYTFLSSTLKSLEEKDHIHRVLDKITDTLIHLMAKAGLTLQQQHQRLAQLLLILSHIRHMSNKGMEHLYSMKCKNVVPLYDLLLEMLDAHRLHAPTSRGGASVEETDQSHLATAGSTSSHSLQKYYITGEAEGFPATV
# [6] = target: Growth hormone secretagogue receptor type 1 (Homo sapiens, UniProt Q92847)
# [7] = target: 5-hydroxytryptamine receptor 2B (Homo sapiens, UniProt P41595); type: functional, cell-based
# [8] = target: T3, Glucocorticoid receptor (Homo sapiens, UniProt P04150)
# T3 sequence (P04150 whole entry): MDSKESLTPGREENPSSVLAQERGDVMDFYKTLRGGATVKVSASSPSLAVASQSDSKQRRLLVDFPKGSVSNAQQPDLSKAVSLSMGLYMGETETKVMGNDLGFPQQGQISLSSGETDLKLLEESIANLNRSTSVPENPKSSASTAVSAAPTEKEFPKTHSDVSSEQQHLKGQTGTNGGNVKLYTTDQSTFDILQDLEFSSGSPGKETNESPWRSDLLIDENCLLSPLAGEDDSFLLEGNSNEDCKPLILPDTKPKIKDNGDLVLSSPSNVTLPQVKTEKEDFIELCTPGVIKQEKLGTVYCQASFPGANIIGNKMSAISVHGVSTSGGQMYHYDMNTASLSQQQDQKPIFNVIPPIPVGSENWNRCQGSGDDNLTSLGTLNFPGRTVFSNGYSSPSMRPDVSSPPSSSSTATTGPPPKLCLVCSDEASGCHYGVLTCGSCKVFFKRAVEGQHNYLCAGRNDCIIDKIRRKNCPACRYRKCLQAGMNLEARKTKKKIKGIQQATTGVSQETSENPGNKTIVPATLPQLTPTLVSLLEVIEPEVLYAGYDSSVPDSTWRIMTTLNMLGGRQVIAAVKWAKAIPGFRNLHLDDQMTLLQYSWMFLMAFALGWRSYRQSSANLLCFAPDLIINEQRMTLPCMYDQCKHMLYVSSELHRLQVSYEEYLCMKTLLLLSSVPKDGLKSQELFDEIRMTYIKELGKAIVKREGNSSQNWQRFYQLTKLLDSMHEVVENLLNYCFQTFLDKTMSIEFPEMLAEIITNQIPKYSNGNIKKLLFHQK
# [9] = target: T4, Progesterone receptor (Homo sapiens, UniProt P06401); type: functional
# T4 sequence (P06401 whole entry): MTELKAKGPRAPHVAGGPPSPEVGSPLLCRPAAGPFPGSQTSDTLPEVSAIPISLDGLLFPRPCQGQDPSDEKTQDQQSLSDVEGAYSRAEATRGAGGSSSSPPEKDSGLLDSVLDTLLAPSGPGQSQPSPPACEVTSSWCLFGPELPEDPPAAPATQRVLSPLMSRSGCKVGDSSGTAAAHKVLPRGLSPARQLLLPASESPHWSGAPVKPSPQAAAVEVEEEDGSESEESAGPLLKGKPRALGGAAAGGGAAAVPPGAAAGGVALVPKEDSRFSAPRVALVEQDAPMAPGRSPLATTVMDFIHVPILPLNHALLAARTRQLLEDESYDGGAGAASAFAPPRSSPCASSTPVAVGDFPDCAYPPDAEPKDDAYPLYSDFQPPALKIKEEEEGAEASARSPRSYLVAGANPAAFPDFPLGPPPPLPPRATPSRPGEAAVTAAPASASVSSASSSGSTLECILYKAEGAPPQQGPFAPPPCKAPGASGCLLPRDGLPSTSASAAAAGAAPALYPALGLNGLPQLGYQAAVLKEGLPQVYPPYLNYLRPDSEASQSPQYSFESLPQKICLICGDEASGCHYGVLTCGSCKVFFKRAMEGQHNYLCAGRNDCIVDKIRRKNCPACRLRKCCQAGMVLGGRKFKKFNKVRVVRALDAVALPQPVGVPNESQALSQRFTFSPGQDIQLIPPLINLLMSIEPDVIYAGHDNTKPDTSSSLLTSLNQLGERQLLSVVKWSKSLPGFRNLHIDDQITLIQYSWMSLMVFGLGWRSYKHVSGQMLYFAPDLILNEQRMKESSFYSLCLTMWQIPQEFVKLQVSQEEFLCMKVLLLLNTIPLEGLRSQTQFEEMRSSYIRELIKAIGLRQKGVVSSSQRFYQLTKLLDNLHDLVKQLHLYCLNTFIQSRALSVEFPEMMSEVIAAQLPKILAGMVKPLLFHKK
# Also: assay procedure not described here.
# Beta-2 adrenergic receptor, sequence (P07550 whole entry): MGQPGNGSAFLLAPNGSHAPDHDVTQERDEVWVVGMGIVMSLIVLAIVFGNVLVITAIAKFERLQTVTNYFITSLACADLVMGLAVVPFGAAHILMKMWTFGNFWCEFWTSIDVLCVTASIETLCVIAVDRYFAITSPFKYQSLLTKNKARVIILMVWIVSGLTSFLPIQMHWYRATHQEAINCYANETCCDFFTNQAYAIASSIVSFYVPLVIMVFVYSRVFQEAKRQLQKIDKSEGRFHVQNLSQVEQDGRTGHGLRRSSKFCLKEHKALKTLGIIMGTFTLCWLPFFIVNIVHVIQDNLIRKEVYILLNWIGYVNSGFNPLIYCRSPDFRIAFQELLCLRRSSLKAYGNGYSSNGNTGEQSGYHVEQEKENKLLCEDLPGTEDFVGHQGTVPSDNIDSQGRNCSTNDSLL
# Vasopressin V1a receptor, sequence (P37288 whole entry): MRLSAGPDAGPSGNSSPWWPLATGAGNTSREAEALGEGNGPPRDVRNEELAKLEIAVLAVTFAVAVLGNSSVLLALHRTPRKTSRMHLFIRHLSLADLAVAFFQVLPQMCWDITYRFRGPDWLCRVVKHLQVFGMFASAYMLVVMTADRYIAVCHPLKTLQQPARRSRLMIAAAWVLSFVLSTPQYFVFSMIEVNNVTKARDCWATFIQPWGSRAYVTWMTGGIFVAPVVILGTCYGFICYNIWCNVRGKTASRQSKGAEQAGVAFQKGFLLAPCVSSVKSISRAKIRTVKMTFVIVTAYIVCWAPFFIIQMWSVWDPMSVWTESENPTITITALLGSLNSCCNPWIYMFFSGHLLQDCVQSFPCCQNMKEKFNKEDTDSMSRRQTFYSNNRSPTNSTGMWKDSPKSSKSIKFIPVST
# Growth hormone secretagogue receptor type 1, sequence (Q92847 whole entry): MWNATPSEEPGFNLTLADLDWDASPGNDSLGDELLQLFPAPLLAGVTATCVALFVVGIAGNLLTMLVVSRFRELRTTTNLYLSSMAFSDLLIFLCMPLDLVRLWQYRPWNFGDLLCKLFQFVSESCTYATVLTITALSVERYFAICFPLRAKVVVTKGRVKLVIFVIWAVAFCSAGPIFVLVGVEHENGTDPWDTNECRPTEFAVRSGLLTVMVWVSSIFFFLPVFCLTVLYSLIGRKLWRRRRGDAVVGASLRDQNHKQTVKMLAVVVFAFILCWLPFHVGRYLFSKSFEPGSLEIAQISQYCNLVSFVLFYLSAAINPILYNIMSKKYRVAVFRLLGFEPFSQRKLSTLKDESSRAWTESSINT
# 5-hydroxytryptamine receptor 2B, sequence (P41595 whole entry): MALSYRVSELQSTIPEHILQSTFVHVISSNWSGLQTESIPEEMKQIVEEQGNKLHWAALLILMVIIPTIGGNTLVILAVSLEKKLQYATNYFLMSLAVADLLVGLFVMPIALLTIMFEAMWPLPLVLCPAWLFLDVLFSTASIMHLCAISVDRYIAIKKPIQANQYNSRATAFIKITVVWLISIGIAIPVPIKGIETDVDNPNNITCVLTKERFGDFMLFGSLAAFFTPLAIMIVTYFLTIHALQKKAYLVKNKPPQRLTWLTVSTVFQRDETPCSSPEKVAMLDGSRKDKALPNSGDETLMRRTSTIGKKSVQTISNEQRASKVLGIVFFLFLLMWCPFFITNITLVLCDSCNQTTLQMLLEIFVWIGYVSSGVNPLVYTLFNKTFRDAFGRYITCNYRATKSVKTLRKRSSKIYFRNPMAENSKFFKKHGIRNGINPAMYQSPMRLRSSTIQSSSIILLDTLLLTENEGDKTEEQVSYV
# Muscarinic acetylcholine receptor M3, sequence (P20309 whole entry): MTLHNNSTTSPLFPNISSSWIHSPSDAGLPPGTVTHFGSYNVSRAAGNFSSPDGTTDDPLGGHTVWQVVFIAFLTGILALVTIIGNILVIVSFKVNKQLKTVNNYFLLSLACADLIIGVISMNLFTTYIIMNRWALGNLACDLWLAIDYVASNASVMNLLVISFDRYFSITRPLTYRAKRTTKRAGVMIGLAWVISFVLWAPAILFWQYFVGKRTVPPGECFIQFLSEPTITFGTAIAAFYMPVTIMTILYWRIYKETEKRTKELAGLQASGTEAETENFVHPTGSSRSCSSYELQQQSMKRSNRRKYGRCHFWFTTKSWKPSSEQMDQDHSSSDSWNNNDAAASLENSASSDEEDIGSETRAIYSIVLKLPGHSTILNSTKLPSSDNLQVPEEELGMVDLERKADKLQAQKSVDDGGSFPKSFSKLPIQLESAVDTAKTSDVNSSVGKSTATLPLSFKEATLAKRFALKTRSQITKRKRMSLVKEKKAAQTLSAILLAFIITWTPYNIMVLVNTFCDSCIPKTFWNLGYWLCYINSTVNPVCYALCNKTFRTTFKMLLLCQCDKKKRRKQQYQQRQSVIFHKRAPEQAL
Structure (SMILES),AC50 [1] [µM],AC50 [2] [µM],AC50 [3] [µM],AC50 [4] [µM],AC50 [5] [µM],AC50 [6] [µM],AC50 [7] [µM],AC50 [8] [µM],AC50 [9] [µM]
N#Cc1ccccc1-c1cc(-c2ccccn2)cn(-c2ccccc2)c1=O,> 30,> 30,> 30,> 30,> 30,> 30,> 30,> 30,> 30
N=C(N)NCCCCCCC(=O)NC(O)C(=O)NCCCCNCCCN (stereo not drawn),> 30,> 30,> 30,> 30,> 30,> 30,> 30,> 30,> 30
CCOC(=O)NNc1ccc(N(CC)CC(C)O)nn1 (stereo not drawn) [CADRALAZINE],> 30,> 30,> 30,> 30,> 30,> 30,> 30,–,> 30
CC(C)c1cc2c(cc1S(=O)(=O)O)[C@@]1(C)CCC[C@@](C)(C(=O)O)[C@@H]1CC2 [ECABET],> 30,> 30,> 30,> 30,> 30,> 30,> 30,–,> 30
COC(=O)N[C@@H](C)CNc1nccc(-c2cn(C(C)C)nc2-c2cc(Cl)cc(NS(C)(=O)=O)c2F)n1 [ENCORAFENIB],–,> 30,> 30,8.7,> 30,> 30,> 30,> 30,> 30
Clc1ccc2c(c1)C(c1ccccc1)=NCc1nncn1-2 [ESTAZOLAM],> 30,> 10,> 30,> 30,> 30,> 30,> 10,> 30,–
O=C(O)c1ccccc1Nc1cccc(C(F)(F)F)c1 [FLUFENAMIC ACID],> 30,> 10,> 30,0.92,> 30,> 30,> 30,> 30,–
C#C[C@]1(O)CC[C@H]2[C@@H]3CCC4=CC(=O)CCC4=C3C=C[C@@]21CC [GESTRINONE],> 30,> 30,> 30,> 30,6.1,> 30,> 30,0.01,–
CC#CCn1c(N2CCC[C@@H](N)C2)nc2c1c(=O)n(Cc1nc(C)c3ccccc3n1)c(=O)n2C [LINAGLIPTIN],–,> 10,> 30,6.5,> 30,5.2,> 10,> 30,–
CN(c1nccc(=O)[nH]1)C1CCN(c2nc3ccccc3n2Cc2ccc(F)cc2)CC1 [MIZOLASTINE],> 30,> 30,> 30,> 30,> 30,> 30,> 30,–,> 30
O=C1CN=C(c2ccccc2)c2cc(Cl)ccc2N1 [NORDAZEPAM],> 30,> 10,> 10,> 10,> 30,> 30,> 10,> 30,–
CC(CCc1ccccc1)NC(C)C(O)c1ccc(O)cc1 (stereo not drawn) [NYLIDRIN],–,0.218,> 10,> 10,> 30,> 30,> 10,> 30,–
CC(=O)O[C@H]1C[C@@H]2CC[C@@H]3[C@H](CC[C@@]4(C)[C@H]3C[C@H]([N+]3(C)CCCCC3)[C@@H]4OC(C)=O)[C@@]2(C)C[C@@H]1[N+]1(C)CCCCC1 [PANCURONIUM],–,> 10,> 10,> 30,> 10,> 10,> 10,> 10,> 10
CC1(C)C(C=C(Cl)Cl)C1C(=O)OCc1cccc(Oc2ccccc2)c1 (stereo not drawn) [PERMETHRIN],–,> 10,> 10,> 30,> 30,> 10,> 10,> 30,> 30
CC(=O)c1ccc2c(c1)N(CCCN1CCC(CCO)CC1)c1ccccc1S2 [PIPERACETAZINE],> 30,22,> 30,9.5,> 30,> 30,> 30,> 30,–
Cc1ccc(=O)n(-c2ccccc2)c1 [PIRFENIDONE],> 30,> 30,> 30,> 30,> 30,> 30,> 30,–,> 30
Cc1cc2nc3c(=O)[nH]c(=O)nc-3n(C[C@H](O)[C@H](O)[C@H](O)COP(=O)(O)O)c2cc1C [RIBOFLAVIN 5'-PHOSPHATE],12,> 30,> 30,> 30,3.7,> 30,–,19,–
N#C[C@@H]1CCCN1C(=O)CNC12CC3CC(CC(O)(C3)C1)C2 [VILDAGLIPTIN],> 30,> 10,> 30,> 30,> 30,> 30,> 30,> 30,–
